The record followed here is patent US20100144733A1, “Compounds, compositions and methods comprising heteroaromatic derivatives” (Institute for OneWorld Health, priority 2008, published 2010).

One assay has as its target T1, CFTR (Homo sapiens, UniProt P13569).
T1 construct: endogenous in cells; host or cells: T84 human colonic cells (ECACC)
Briefly: T84 assay (FLIPR membrane potential dye, forskolin/IBMX-stimulated CFTR channel activity). The format is cell-based. Summed up: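 Fluorescence from a membrane potential dye in T84 monolayers (HBSS with 10 mM Hepes) is followed each second for 150 s. Cells are exposed to test compound during the 45 min dye loading, then challenged with forskolin (10 μM) and IBMX (100 μM) to open CFTR. Inhibitors suppress the depolarization-driven fluorescence increase.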

Assay [1] concerns cholera toxin (CTX) induced net fluid secretion in intestinal loops. Briefly: animal or person. The format is in vivo, mice (CD1 strain). The conditions noted are these: 4 hours; for inhibition in vivo at 100 µg/loop: Mus musculus, read-out: closed loop % inhibition @ 100 μg.
The mark [2] stands for this setting: oxadiazole-containing compounds (a series), average of at least 2 runs unless annotated n = 1, read-out: IC50.

Read-outs that look alike come from different tables or passages of the source.

T1 sequence (P13569 whole entry): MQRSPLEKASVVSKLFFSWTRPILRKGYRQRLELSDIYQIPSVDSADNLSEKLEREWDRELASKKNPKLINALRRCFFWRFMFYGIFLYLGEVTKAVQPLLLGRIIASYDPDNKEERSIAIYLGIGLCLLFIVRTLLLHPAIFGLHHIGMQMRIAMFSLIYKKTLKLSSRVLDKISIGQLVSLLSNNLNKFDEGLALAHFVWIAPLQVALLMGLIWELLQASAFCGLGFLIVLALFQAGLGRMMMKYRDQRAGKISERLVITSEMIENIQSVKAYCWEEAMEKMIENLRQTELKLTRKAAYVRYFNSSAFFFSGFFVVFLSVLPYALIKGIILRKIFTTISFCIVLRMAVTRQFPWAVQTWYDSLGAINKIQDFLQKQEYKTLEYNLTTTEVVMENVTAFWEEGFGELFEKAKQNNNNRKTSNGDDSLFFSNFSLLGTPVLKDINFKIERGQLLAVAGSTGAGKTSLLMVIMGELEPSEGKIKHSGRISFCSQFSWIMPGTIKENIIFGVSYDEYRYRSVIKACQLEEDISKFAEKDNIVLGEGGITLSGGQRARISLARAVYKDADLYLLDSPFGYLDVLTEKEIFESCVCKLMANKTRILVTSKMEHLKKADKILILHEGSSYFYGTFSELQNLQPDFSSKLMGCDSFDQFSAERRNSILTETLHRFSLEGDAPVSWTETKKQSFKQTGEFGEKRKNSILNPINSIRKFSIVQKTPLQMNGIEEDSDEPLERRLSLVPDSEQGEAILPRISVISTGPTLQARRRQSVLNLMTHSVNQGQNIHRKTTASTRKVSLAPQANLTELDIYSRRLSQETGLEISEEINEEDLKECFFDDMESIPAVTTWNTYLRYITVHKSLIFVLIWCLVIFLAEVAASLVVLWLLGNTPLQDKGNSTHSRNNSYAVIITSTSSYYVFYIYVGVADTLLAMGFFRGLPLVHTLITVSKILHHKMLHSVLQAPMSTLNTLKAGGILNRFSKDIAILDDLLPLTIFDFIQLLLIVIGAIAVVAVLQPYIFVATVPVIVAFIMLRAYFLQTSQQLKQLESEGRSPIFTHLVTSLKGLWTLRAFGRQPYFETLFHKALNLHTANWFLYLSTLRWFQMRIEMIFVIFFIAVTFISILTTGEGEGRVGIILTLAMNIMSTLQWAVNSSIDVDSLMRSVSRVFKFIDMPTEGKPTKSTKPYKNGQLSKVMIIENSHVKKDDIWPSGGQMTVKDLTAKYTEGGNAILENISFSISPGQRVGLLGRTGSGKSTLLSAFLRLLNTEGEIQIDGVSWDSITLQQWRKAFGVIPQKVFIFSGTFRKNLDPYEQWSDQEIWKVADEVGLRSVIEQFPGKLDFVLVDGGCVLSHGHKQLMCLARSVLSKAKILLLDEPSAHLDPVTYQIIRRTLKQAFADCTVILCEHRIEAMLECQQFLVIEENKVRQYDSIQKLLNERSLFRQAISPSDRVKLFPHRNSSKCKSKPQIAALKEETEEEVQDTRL

`O=C(NCc1cc(F)cc(F)c1)c1noc(-c2cc(Cl)c(O)c(Cl)c2)n1` [112a, 5-(3,5-dichloro-4-hydroxyphenyl)-N-(3,5-difluorobenzyl)-1,2,4-oxadiazole-3-carboxamide]: the IC50 on CFTR (setting [2]) is 11.2 µM. Besides, in assay [1], the inhibition in vivo at 100 µg/loop turned out to be 51%.

As to `Oc1c(Br)cc(-c2cnc(COc3cccc(Cl)c3Cl)nn2)cc1Br` [30e, 2,6-dibromo-4(3-((2,3-dichlorophenoxy)methyl)-1,2,4-triazin-6-yl)phenol], in assay [1], the “closed loop % inhibition @ 100 μg” value amounted to 94.4%.

For `OCCN(Cc1ccccc1)c1ccc(-c2cc(Cl)c(O)c(Cl)c2)nn1` [98f, 4-(6-(benzyl(2-hydroxyethyl)amino)pyridazin-3-yl)-2,6-dichlorophenol], the “closed loop % inhibition @ 100 μg” value in assay [1] is on record as 67.0%.

For `O=C(NCc1cccc(OC(F)(F)F)c1)c1noc(-c2cc(Br)c(O)c(Br)c2)n1` [65a, 5-(3,5-Dibromo-4-hydroxyphenyl)-N-(3-(trifluoromethoxy)benzyl)-1,2,4-oxadiazole-3-carboxamide], the IC50 at CFTR (setting [2]) was found to be 1.53 µM. Besides, the inhibition in vivo at 100 µg/loop in assay [1] worked out at 94.6%.

As to `Oc1c(Br)cc(-c2cnc(OCc3ccc(Cl)cc3)nn2)cc1Br` [20e, 2,6-dibromo-4-(3-(4-chlorobenzyloxy)-1,2,4-triazin-6-yl)phenol], in assay [1], the “closed loop % inhibition @ 100 μg” value came to 87.6%.

Regarding `Oc1c(Cl)cc(-c2cnc(C(O)(c3ccccc3)c3ccccc3)nn2)cc1Cl` [36e, 2,6-dichloro-4-(3-(hydroxydiphenylmethyl)-1,2,4-triazin-6-yl)phenol], in assay [1], the “closed loop % inhibition @ 10 μg” value is listed as 62.1% and the “closed loop % inhibition @ 100 μg” value amounted to 74.9%.

For `O=C(NCc1cccc(OC(F)(F)F)c1)c1noc(-c2cc(Cl)c(O)c(Cl)c2O)n1` [120a, 5-(3,5-dichloro-2,4-dihydroxyphenyl)-N-(3-(trifluoromethoxy)benzyl)-1,2,4-oxadiazole-3-carboxamide], the half-maximal inhibitory concentration (IC50) at CFTR (setting [2]) stood at 12.4 µM. Moreover, in assay [1], the inhibition in vivo at 100 µg/loop is 62.3%.

In the case of `CC(C)(C)C(=O)CN(Cc1cccc(C(F)(F)F)c1)C(=O)c1nc(-c2cc(Br)c(O)c(Br)c2)no1` [1a, 3-(3,5-dibromo-4-hydroxyphenyl)-N-(3,3-dimethyl-2-oxobutyl)-N-(3-(trifluoromethyl)benzyl)-1,2,4-oxadiazole-5-carboxamide], the IC50 on CFTR (setting [2]) came to 0.98 µM. In assay [1], the “closed loop % inhibition @ 10 μg” value stood at 69.4% and the inhibition in vivo at 100 µg/loop was found to be 87.1%.

As for `CN(Cc1ccc(C(F)(F)F)cc1)C(=O)c1cc(-c2cc(Br)c(O)c(Br)c2)on1` [2g, 5-(3,5-Dibromo-4-hydroxyphenyl)-N-methyl-N-(4(trifluoromethyl)benzyl)isoxazole-3-carboxamide], the half-maximal inhibitory concentration (IC50) on CFTR (isoxazole-containing compounds (Table 10, 10′, 11, 11′), read-out: IC50) came out at 6.96 µM. Moreover, in assay [1], the “closed loop % inhibition @ 10 μg” value was −66.3% and the inhibition in vivo at 100 µg/loop is 94.2%.

As to `CCN(Cc1ccccc1)c1ccc(-c2cc(Cl)c(O)c(Cl)c2)nn1` [115f, 4-(6-(benzyl(ethyl)amino)pyridazin-3-yl)-2,6-dichlorophenol], the “closed loop % inhibition @ 100 μg” value in assay [1] is on record as 79.4%.

Turning to `Oc1c(Cl)cc(-c2cnc(OCc3ccccc3F)nn2)cc1Cl` [127e, 2,6-dichloro-4-(3-(2-fluorobenzyloxy)-1,2,4-triazin-6-yl)phenol], in assay [1], the “closed loop % inhibition @ 10 μg” value was 62.7% and the “closed loop % inhibition @ 100 μg” value was 70.2%.

`O=C(NCc1ccc(Oc2ccccc2)cc1)c1nc(-c2cc(Br)c(O)c(Br)c2)no1` [13a, 3-(3,5-dibromo-4-hydroxyphenyl)-N-(4-phenoxybenzyl)-1,2,4-oxadiazole-5-carboxamide]: the IC50 at CFTR (setting [2]) was 8.51 µM. Further, in assay [1], the “closed loop % inhibition @ 10 μg” value is 88.6% and the inhibition in vivo at 100 µg/loop turned out to be 94.7%.

What is called IC50 is the concentration that gives 50% inhibition.
